From patent publication US20260097111A1, “ETHER LIPIDS FOR HYPERACTIVATION OF MAMMALIAN DENDRITIC CELLS” (priority 2022, published 2026)
Entries after “also recorded” stand apart in the source; their conditions may differ.

Tested on: human monocyte-derived dendritic cells (moDCs)
Assay: IL-1β secretion by human moDCs treated with lipid and R848
Assay type: cell-based
Settings: for IL-1β secretion / IL-1β secretion, dependence on the NLRP3 inflammasome: human moDCs; for IL-1β secretion, dependence on the NLRP3 inflammasome: R848 + lipid with or without MCC950, one day, FIG. 3B

Structure (SMILES) | hyperactivation of human dendritic cells (41.25 μM lipid with R848 (Compound 1 also 20.6 μM)) | IL-1β secretion (41.25 μM lipid with R848, FIG. 17) | IL-1β secretion (41.3 uM lipid with R848, FIG. 11) | IL-1β secretion (24 hours, lipid (equimolar, in 0.5% KP407) with R848, FIG. 1B, listed as DGP) | IL-1β secretion (24 hours, lipid in 4% KP407 with R848, FIG. 2B) | IL-1β secretion, dependence on the NLRP3 inflammasome
CCCCCCCCCCCCCCCCCCCCCCOC[C@@H](O)COP(=O)(O)O [Compound 2, 1-docosyl-sn-glycerol-3-phosphate] | hyperactivating lipids; also recorded: hyperactivated dendritic cells | significant increase in IL-1β | robustly induced IL-113 secretion | IL-1β was secreted to a greater extent than 22:0 lyso PC; also recorded: more potent hyperactivator compared to DGPC (Compound 1) and 22:0 lyso PC | produced significantly more IL-1β | depend on the NLRP3 inflammasome for IL-1β secretion
CC(C)(O)c1coc(S(=O)(=O)NC(=O)Nc2c3c(cc4c2CCC4)CCC3)c1 [MCC950, reference compound] |  |  |  |  |  | diminished the IL-1β output
